Test results taken from paper PMC9569995, “Study of Biological Activities and ADMET-Related Properties of Salicylanilide-Based Peptidomimetics” (International Journal of Molecular Sciences, 2022).
Converted amounts (≈) assume the structure as drawn. “And” between values parts separate entries of the source, which are not always exact repeats. Equal entries are not always repeated. Where two headings read alike, the source gives them in different places.

Columns and labels:
[1] = Lipophilicity determination by HPLC; format: physicochemical; conditions: for log D6.5: HPLC C18, MeOH 72%/acetate-buffered saline pH 6.5 28%; for log D7.4: HPLC C18, MeOH 72%/acetate-buffered saline pH 7.4 28%; for log k: logarithm of capacity factor, HPLC C18, MeOH 72%/H2O 28%
Excerpt: . A chromatographic column Symmetry® C18 5 μm, 4.6 × 250 mm, Part No. W21751W016 (Waters Corp, Milford, MA, USA) was used. The HPLC separation process was monitored by ChemStation for LC 3D systems (Agilent Technologies). Isocratic elution by a mixture of MeOH (HPLC grade, 72%) and H2O-HPLC Mili-Q grade (28%) as a mobile phase was used for the determination of capacity factor k. Isocratic elution by a mixture of MeOH (HPLC grade, 72%) and acetate-buffered saline (pH 7.4 and pH 6.5) (28%) as a mobile phase was used for the determination of distribution coefficient expressed as D7.4 and D6.5. The total flow of the column was 1.0 mL/min, injection was 20 μL, column temperature was 40 °C, and sample temperature was 10 °C. The detection wavelength of 210 nm was chosen. A KI methanolic solution was used for the determination of the dead times (tD). Retention times (tR) were measured in minutes. The capacity factors k were calculated according to the formula k = (tR − tD)/tD, where tR is the retention time of the solute, and tD is the dead time obtained using an unretained analyte. The distribution coefficients DpH were calculated according to the formula DpH = (tR − tD)/tD. Each experiment was repeated three times.

M. smegmatis ATCC 700084 = experiment: In vitro antimycobacterial evaluation, MIC (broth dilution micro-method); format: cell-based, Mycobacterium smegmatis
Method: For M. smegmatis, the broth dilution micro-method in Middlebrook 7H9 medium (Difco) supplemented with ADC Enrichment (Difco) was used. […] Bacterial inocula were prepared by transferring colonies from culture to sterile water. The cell density was adjusted to 0.5 McFarland units using a densitometer (Densi-La-Meter, LIAP, Riga, Latvia). The final inoculum was made by 1:1000 dilution of the suspension with sterile water. Drug-free controls, sterility controls, and controls consisting of medium and DMSO alone were included. The determination of results was performed visually after three days of static incubation in the darkness at 37 °C in an aerobic atmosphere.

[2] = tested on: human monocytic leukemia cell line THP-1; experiment: In vitro cell viability analysis (CCK-8); format: cell-based; conditions: ± SD, n = 6, medium with 10% FBS, 24 h
Method: Human monocytic leukemia THP-1 cells obtained from the European Collection of Cell Cultures (ECACC, Salisbury, UK) were used for in vitro antiproliferative assays. They were routinely cultured in Roswell Park Memorial Institute RPMI 1640 medium supplemented with 10% fetal bovine serum (FBS), 2% L-glutamine, 1% penicillin, and streptomycin (all from Sigma-Aldrich) at 37 °C with 5% CO2. The cells were incubated in a complete medium (i.e., containing FBS) with test compounds at 37 °C with 5% CO2 for 24 h, similarly as we described previously. The effect of the test compounds dissolved in DMSO on cell viability was determined using a Cell Counting Kit-8 (CCK-8; Sigma) according to the manufacturer’s instructions.

Bacillus cereus = conditions: cited from earlier work
Clostridium perfringens = conditions: cited from earlier work
Mycobacterium kansasii = conditions: cited from earlier work
M. smegmatis = conditions: cited from earlier work
[3] = tested on: Mycobacterium tuberculosis H37Ra/ATCC 25177; experiment: In vitro antimycobacterial evaluation, MIC (alamarBlue); conditions: MT; 14 days, 37 °C
[4] = tested on: Staphylococcus aureus ATCC 29213; experiment: In vitro antibacterial evaluation, MIC by microtitration broth method; conditions: ATCC29213, 24 h
[5] = tested on: methicillin-resistant S. aureus SA 3202; experiment: as above; conditions: Staphylococcus aureus, 24 h
[6] = tested on: methicillin-resistant S. aureus SA 630; experiment: as above; conditions: Staphylococcus aureus, 24 h
[7] = tested on: methicillin-resistant S. aureus 63718; experiment: as above; conditions: Staphylococcus aureus, 24 h
[8] = tested on: Enterococcus faecalis ATCC 29212; experiment: as above; conditions: ATCC29212, 24 h
[9] = tested on: vancomycin-resistant E. faecalis VRE 342B; experiment: as above; conditions: Enterococcus faecalis, 24 h
[10] = tested on: vancomycin-resistant E. faecalis VRE 368; experiment: as above; conditions: Enterococcus faecalis, 24 h
[11] = tested on: vancomycin-resistant E. faecalis VRE 725B; experiment: as above; conditions: Enterococcus faecalis, 24 h
[12] = tested on: Staphylococcus aureus ATCC 29213; experiment: Determination of minimum bactericidal concentrations (agar aliquot subculture); conditions: ATCC29213
[13] = tested on: methicillin-resistant S. aureus SA 3202; experiment: as above; conditions: Staphylococcus aureus
[14] = tested on: methicillin-resistant S. aureus SA 630; experiment: as above; conditions: Staphylococcus aureus
[15] = tested on: methicillin-resistant S. aureus 63718; experiment: as above; conditions: Staphylococcus aureus
[16] = tested on: Enterococcus faecalis ATCC 29212; experiment: as above; conditions: ATCC29212
[17] = tested on: vancomycin-resistant E. faecalis VRE 342B; experiment: as above; conditions: Enterococcus faecalis
[18] = tested on: vancomycin-resistant E. faecalis VRE 368; experiment: as above; conditions: Enterococcus faecalis
[19] = tested on: vancomycin-resistant E. faecalis VRE 725B; experiment: as above; conditions: Enterococcus faecalis
[20] = tested on: methicillin-resistant S. aureus 63718; parameters: method as in PMID 26079401; conditions: MRSA 63718 (VA2-MRSA); cited from earlier work
S. aureus ATCC 29123 = experiment: Crystal violet uptake (membrane permeability); conditions: 4× MIC, 1 h; compared to growth control and 1% Tween 20
S. aureus ATCC 29213 = experiment: MTT assay of bacterial viability (respiration); conditions: for Conc.: lowest multiple of MBC with at least 70% inhibition of S. aureus viability / Conc.: lowest multiple of MIC with at least 70% inhibition of S. aureus viability: MTT, 24 h
[21] = Mycolicibacterium smegmatis, ATCC700084, 72 h

| SMILES | log D6.5 [1] | log D7.4 [1] | log k [1] | MIC (M. smegmatis ATCC 700084; [21]) | IC50 [2] | MIC [4] | MIC [5] | MIC [6] | MIC [7] | MIC [8] | MIC [10] | MIC [11] | MBC [12] | MBC [13] | MBC [14] | MBC [15] | MBC [16] | MBC [17] | MBC [18] | MBC [19] | further results |
| --- | --- | --- | --- | --- | --- | --- | --- | --- | --- | --- | --- | --- | --- | --- | --- | --- | --- | --- | --- | --- | --- |
| CC(C)[C@H](NC(=O)c1cc(Cl)ccc1O)C(=O)Nc1ccc(C(F)(F)F)cc1 [3c, 5-Chloro-2-hydroxy-N-[(2S)-3-methyl-1-oxo-1-{[4-(trifluoromethyl)phenyl]amino}butan-2-yl]benzamide] | 0.973 | 0.934 | 1.081 | 77.1 µM (≈ 32 µg/mL) | > 10 µM | 2.41 µM (≈ 1 µg/mL) | 4.82 µM (≈ 2 µg/mL) | 4.82 µM (≈ 2 µg/mL) | 4.82 µM (≈ 2 µg/mL) | 38.6 µM (≈ 16 µg/mL) | 38.6 µM (≈ 16 µg/mL) | 38.6 µM (≈ 16 µg/mL) | 4.82 µM (≈ 2 µg/mL) | 4.82 µM (≈ 2 µg/mL) | 4.82 µM (≈ 2 µg/mL) | 9.64 µM (≈ 4 µg/mL) | 38.6 µM (≈ 16 µg/mL) | 38.6 µM (≈ 16 µg/mL) | 38.6 µM (≈ 16 µg/mL) | 38.6 µM (≈ 16 µg/mL) | MIC (Bacillus cereus): 2.41 µM (≈ 1 µg/mL); MIC (Clostridium perfringens): 4.82 µM (≈ 2 µg/mL); MIC (Mycobacterium kansasii): 38.6 µM (≈ 16 µg/mL); MIC (M. smegmatis): 77.1 µM (≈ 32 µg/mL); MIC [3]: 77.1 n.d. µM; MIC [9]: 38.6 µM (≈ 16 µg/mL) |
| CN[C@H](CC(C)C)C(=O)N[C@H]1C(=O)N[C@@H](CC(N)=O)C(=O)N[C@H]2C(=O)N[C@H]3C(=O)N[C@H](C(=O)N[C@H](C(=O)O)c4cc(O)cc(O)c4-c4cc3ccc4O)[C@H](O)c3ccc(c(Cl)c3)Oc3cc2cc(c3O[C@@H]2O[C@H](CO)[C@@H](O)[C@H](O)[C@H]2O[C@H]2C[C@](C)(N)[C@H](O)[C@H](C)O2)Oc2ccc(cc2Cl)[C@H]1O [vancomycin] |  |  |  |  |  |  |  |  |  |  |  |  |  |  |  |  |  |  |  |  | MIC [20]: 2 µg/mL (≈ 1.38 µM) |
| CC(C)C[C@H](NC(=O)c1cc(Cl)ccc1O)C(=O)Nc1ccc(C(F)(F)F)cc1 [3f] | 1.256 | 1.161 | 1.266 | 18.7 µM (≈ 8.02 µg/mL) | 1.9 ± 1.1 µM | 1.17 µM (≈ 0.502 µg/mL) | 1.17 µM (≈ 0.502 µg/mL) | 1.17 µM (≈ 0.502 µg/mL) | 0.07 µM (≈ 0.03 µg/mL) | 4.66 µM (≈ 2 µg/mL) | 9.33 µM (≈ 4 µg/mL) | 4.66 µM (≈ 2 µg/mL) | 1.17 µM (≈ 0.502 µg/mL) | 1.17 µM (≈ 0.502 µg/mL) | 1.17 µM (≈ 0.502 µg/mL) | 0.07 µM (≈ 0.03 µg/mL) | 9.33 µM (≈ 4 µg/mL) | 18.7 µM (≈ 8.02 µg/mL) | 18.7 µM (≈ 8.02 µg/mL) | 37.3 µM (≈ 16 µg/mL) | MIC (M. smegmatis ATCC 700084; MS, three days, 37 °C): 18.7 n.d. µM; effect on plasma membrane permeability (crystal violet uptake) (S. aureus ATCC 29123): did not affect plasma membrane permeability; Conc.: lowest multiple of MBC with at least 70% inhibition of S. aureus viability (S. aureus ATCC 29213): 1× MIC (1× MBC); Conc.: lowest multiple of MIC with at least 70% inhibition of S. aureus viability (S. aureus ATCC 29213): 1× MIC (1× MBC); S. aureus Viability Inhibition (S. aureus ATCC 29213; at 1× MIC (1× MBC)): 95.3%; viability of bacterial cells (S. aureus ATCC 29213; at their MIC value or below): less than 70%; MIC [3]: 18.7 µM and 18.7 n.d. µM |
| CC1(C)S[C@@H]2[C@H](NC(=O)[C@H](N)c3ccccc3)C(=O)N2[C@H]1C(=O)O [APC, ampicillin, reference compound] |  |  |  |  |  | 5.72 µM (≈ 2 µg/mL) | 45.8 µM (≈ 16 µg/mL) | 45.8 µM (≈ 16 µg/mL) | 45.8 µM (≈ 16 µg/mL) | 2.81 µM (≈ 0.982 µg/mL) | 11.5 µM (≈ 4.02 µg/mL) | 11.5 µM (≈ 4.02 µg/mL) | > 5.72 µM | > 45.8 µM | > 45.8 µM | > 45.8 µM | 2.81 µM (≈ 0.982 µg/mL) | 11.5 µM (≈ 4.02 µg/mL) | 11.5 µM (≈ 4.02 µg/mL) | 11.5 µM (≈ 4.02 µg/mL) | Conc.: lowest multiple of MBC with at least 70% inhibition of S. aureus viability (S. aureus ATCC 29213): 8× MIC (>8× MBC); Conc.: lowest multiple of MIC with at least 70% inhibition of S. aureus viability (S. aureus ATCC 29213): 8× MIC (>8× MBC); S. aureus Viability Inhibition (S. aureus ATCC 29213; at 8× MIC (>8× MBC)): 90.0%; MIC [9]: 11.5 µM (≈ 4.02 µg/mL) |
| CSCC[C@H](NC(=O)c1cc(Cl)ccc1O)C(=O)Nc1ccc(C(F)(F)F)cc1 [3e, 5-Chloro-2-hydroxy-N-[(2S)-4-(methylsulfanyl)-1-oxo-1-{[4-(trifluoromethyl)phenyl]amino}butan-2-yl]benzamide] | 1.021 | 0.963 | 1.076 | 35.8 µM (≈ 16 µg/mL) | > 10 µM | 2.24 µM (≈ 1 µg/mL) | 8.95 µM (≈ 4 µg/mL) | 4.48 µM (≈ 2 µg/mL) | 8.95 µM (≈ 4 µg/mL) | 17.9 µM (≈ 8 µg/mL) | 17.9 µM (≈ 8 µg/mL) | 35.8 µM (≈ 16 µg/mL) | 2.24 µM (≈ 1 µg/mL) | 8.95 µM (≈ 4 µg/mL) | 8.95 µM (≈ 4 µg/mL) | 8.95 µM (≈ 4 µg/mL) | 35.8 µM (≈ 16 µg/mL) | 35.8 µM (≈ 16 µg/mL) | 35.8 µM (≈ 16 µg/mL) | 35.8 µM (≈ 16 µg/mL) | MIC (M. smegmatis ATCC 700084; MS, three days, 37 °C): 35.8 n.d. µM; effect on plasma membrane permeability (crystal violet uptake) (S. aureus ATCC 29123): did not affect plasma membrane permeability; Conc.: lowest multiple of MBC with at least 70% inhibition of S. aureus viability (S. aureus ATCC 29213): 2× MIC (2× MBC); Conc.: lowest multiple of MIC with at least 70% inhibition of S. aureus viability (S. aureus ATCC 29213): 2× MIC (2× MBC); S. aureus Viability Inhibition (S. aureus ATCC 29213; at 2× MIC (2× MBC)): 94% and 94.6%; MIC [3]: 35.8 µM and 35.8 n.d. µM; MIC [9]: 35.8 µM (≈ 16 µg/mL) |
